According to US20240174622A1, “COMPOUND AND RADIOACTIVE LABELING COMPOUND” (NIHON MEDI-PHYSICS CO., LTD., priority 2021, published 2024):

Tests used:
[1] = tested on: LNCaP tumor-transplanted mouse; test: Internal radioactivity distribution using LNCaP tumor-transplanted mouse; assay type: in vivo
Experimental: (§1) The animal test was performed in compliance with the guidelines of Kyoto University Animal Experiment Committee. Male CB17/IcrJcl-Prkdc^scid mice were purchased from CLEA Japan, Inc. The animals were kept under 12 h/12 h, day/night cycle conditions and fed ad libitum with food and water. LNCaP cells (1.0×10^7 cells/mouse) or PC-3 cells (1.0×10^7 cells/mouse) were suspended in a mixture of PBS and Matrigel manufactured by Corning Life Sciences (1:1, 150 μL) and the suspension was subcutaneously transplanted to the right shoulder of mice under isoflurane anesthesia. Thereafter, the mice were kept for 40 to 60 days.
LNCaP or PC-3 tumor-implanted mice were administered saline solutions (185 kBq, 100 μL) of [^111In]In-PSMA-DA1 or [^111In]In-PSMA-DB from the tail vein (n=3 each). Mice were euthanized 1, 4, 24, 48, 96, and 192 hours after administration. Thereafter, blood and each organ were recovered, and the mass and radioactivity of the organs were measured.
The percentage (% ID) of the radioactivity amount to the administered radioactivity amount (injected dose) is shown as the value (% ID/g) divided by the blood mass or the organ mass (g).
LNCaP tumor-implanted mice prepared by the same method as in Example 1-1 were administered a saline solution (241 kBq/100 μL) of [^111In]In-PtDA from the tail vein (n=3). Mice were euthanized 1, 24, and 48 hours after administration. Thereafter, blood and each organ were recovered, and the mass and radioactivity of the organs were measured.
LNCaP tumor-implanted mice prepared by the same method as in Example 1-1 were administered a saline solution (259 kBq/100 μL each) of each of the radiolabeled compounds in Examples 3-1 to 3-3 or Comparative Examples 2-1 to 2-2 from the tail vein (n=2 to 3). Mice were euthanized 1, 4, 24, 48, 96, and 192 hours after administration. Thereafter, blood and each organ were recovered, and the mass and radioactivity of the organs were measured.
as §1, with “LNCaP cells (4.3×10^6 cells/mouse) or” for “LNCaP cells (1.0×10^7 cells/mouse) or”, “PC-3 cells (3.3×10^6 cells/mouse) were” for “PC-3 cells (1.0×10^7 cells/mouse) were”, “shoulder of CB17/IcrJcl-Prkdc^scid mice under” for “shoulder of mice under”
Mice were euthanized 1, 4, 24, 48, 96, and 192 hours after administration. Thereafter, blood and each organ were recovered, and the mass and radioactivity of the organs were measured.
The results are shown in Table 12 (Mean value±standard deviation, n=3).

[2] = target: human serum albumin (HSA) (Homo sapiens, UniProt P02768); test: Evaluation of binding to albumin (HSA solution, PBS control); conditions: left to stand in HSA solution (45 mg/mL)
Experimental: Thereafter, the reaction liquids were added to a spin column (Sephadex G-100; manufactured by Cytiva), and centrifuged at 1500×g at 4° C. for 2 minutes. After separation, the radioactivity for each of the column and the eluate was measured with a gamma counter.
When a compound to be evaluated binds to albumin to form a composite, the compound passes through the column because of the increased molecular size.
As in Examples described above, PBS and human albumin were used to evaluate binding to albumin.
Thereafter, the reaction liquid was added to a spin column (Sephadex G-50; manufactured by Cytiva), and centrifuged at 1500×g at 4° C. for 2 minutes. After separation, the radioactivity of the column and the eluate was measured with a gamma counter.

Sequence of human serum albumin (HSA) (P02768 25-609): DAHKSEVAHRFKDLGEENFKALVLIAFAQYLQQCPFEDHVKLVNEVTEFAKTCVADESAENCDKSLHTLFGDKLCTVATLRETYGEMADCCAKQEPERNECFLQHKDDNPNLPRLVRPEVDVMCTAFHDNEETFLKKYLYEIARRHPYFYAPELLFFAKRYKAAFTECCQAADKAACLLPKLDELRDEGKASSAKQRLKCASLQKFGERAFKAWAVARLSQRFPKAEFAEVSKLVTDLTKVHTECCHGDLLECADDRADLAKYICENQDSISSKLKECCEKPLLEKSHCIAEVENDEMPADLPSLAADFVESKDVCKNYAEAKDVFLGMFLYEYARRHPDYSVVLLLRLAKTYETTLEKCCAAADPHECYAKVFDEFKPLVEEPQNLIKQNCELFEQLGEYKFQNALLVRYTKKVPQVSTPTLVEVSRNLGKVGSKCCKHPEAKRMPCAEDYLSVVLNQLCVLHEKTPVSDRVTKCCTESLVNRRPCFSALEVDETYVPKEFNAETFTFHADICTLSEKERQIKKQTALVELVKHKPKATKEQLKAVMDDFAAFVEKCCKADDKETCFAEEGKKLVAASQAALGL

Blood ([1]; 1 h after administration): 0.48 ± 0.09 % ID/g | Brain ([1]; 1 h after administration): 0.02 ± 0.00 % ID/g | Heart ([1]; 1 h after administration): 0.32 ± 0.08 % ID/g | Intestine ([1]; 1 h after administration): 0.40 ± 0.13 % ID/g | Kidney ([1]; 1 h after administration): 322 ± 42.8 % ID/g | LNCaP Tumor ([1]; 1 h after administration): 9.72 ± 1.65 % ID/g | Liver ([1]; 1 h after administration): 0.36 ± 0.13 % ID/g | Lung ([1]; 1 h after administration): 0.99 ± 0.22 % ID/g | Muscle ([1]; 1 h after administration): 0.20 ± 0.01 % ID/g | Pancreas ([1]; 1 h after administration): 0.62 ± 0.19 % ID/g | Spleen ([1]; 1 h after administration): 10.9 ± 5.59 % ID/g | Stomach (% ID) ([1]; 1 h after administration): 0.08 ± 0.01 % ID | Blood ([1]; 4 h after administration): 0.21 ± 0.18 % ID/g | Brain ([1]; 4 h after administration): 0.02 ± 0.01 % ID/g | Heart ([1]; 4 h after administration): 0.18 ± 0.03 % ID/g | Intestine ([1]; 4 h after administration): 3.50 ± 1.21 % ID/g | Kidney ([1]; 4 h after administration): 112 ± 54.6 % ID/g | LNCaP Tumor ([1]; 4 h after administration): 4.73 ± 0.40 % ID/g | Liver ([1]; 4 h after administration): 0.13 ± 0.02 % ID/g | Lung ([1]; 4 h after administration): 0.23 ± 0.10 % ID/g | Muscle ([1]; 4 h after administration): 0.10 ± 0.02 % ID/g | Pancreas ([1]; 4 h after administration): 0.24 ± 0.07 % ID/g | Spleen ([1]; 4 h after administration): 3.55 ± 1.75 % ID/g | Stomach (% ID) ([1]; 4 h after administration): 0.37 ± 0.22 % ID | Blood ([1]; 24 h after administration): 0.02 % ID/g | Brain ([1]; 24 h after administration): 0.04 ± 0.04 % ID/g | Heart ([1]; 24 h after administration): 0.04 ± 0.01 % ID/g | Intestine ([1]; 24 h after administration): 0.27 ± 0.08 % ID/g | Kidney ([1]; 24 h after administration): 24.9 ± 10.9 % ID/g | LNCaP Tumor ([1]; 24 h after administration): 2.00 ± 0.61 % ID/g | Liver ([1]; 24 h after administration): 0.06 ± 0.01 % ID/g | Lung ([1]; 24 h after administration): 0.13 ± 0.06 % ID/g | Muscle ([1]; 24 h after administration): 0.01 ± 0.01 % ID/g | Pancreas ([1]; 24 h after administration): 0.12 ± 0.03 % ID/g | Spleen ([1]; 24 h after administration): 2.48 ± 1.44 % ID/g | Stomach (% ID) ([1]; 24 h after administration): 0.03 ± 0.01 % ID | Blood ([1]; 48 h after administration): 0.00 ± 0.00 % ID/g | Brain ([1]; 48 h after administration): 0.01 ± 0.00 % ID/g | Heart ([1]; 48 h after administration): 0.02 ± 0.03 % ID/g | Intestine ([1]; 48 h after administration): 0.52 ± 0.33 % ID/g | Kidney ([1]; 48 h after administration): 7.48 ± 1.23 % ID/g | LNCaP Tumor ([1]; 48 h after administration): 0.58 ± 0.11 % ID/g | Liver ([1]; 48 h after administration): 0.04 ± 0.01 % ID/g | Lung ([1]; 48 h after administration): 0.06 ± 0.02 % ID/g | Muscle ([1]; 48 h after administration): 0.01 ± 0.02 % ID/g | Pancreas ([1]; 48 h after administration): 0.05 ± 0.01 % ID/g | Spleen ([1]; 48 h after administration): 1.64 ± 0.53 % ID/g | Stomach (% ID) ([1]; 48 h after administration): 0.07 ± 0.04 % ID | Blood ([1]; 96 h after administration): 0.02 ± 0.01 % ID/g | Brain ([1]; 96 h after administration): 0.01 ± 0.00 % ID/g | Heart ([1]; 96 h after administration): 0.03 ± 0.00 % ID/g | Intestine ([1]; 96 h after administration): 0.13 ± 0.05 % ID/g | Kidney ([1]; 96 h after administration): 7.24 ± 3.00 % ID/g | LNCaP Tumor ([1]; 96 h after administration): 0.72 ± 0.11 % ID/g | Liver ([1]; 96 h after administration): 0.08 ± 0.02 % ID/g | Lung ([1]; 96 h after administration): 0.09 ± 0.03 % ID/g | Muscle ([1]; 96 h after administration): 0.03 ± 0.04 % ID/g | Pancreas ([1]; 96 h after administration): 0.04 ± 0.00 % ID/g | Spleen ([1]; 96 h after administration): 2.06 ± 0.88 % ID/g | Stomach (% ID) ([1]; 96 h after administration): 0.03 ± 0.01 % ID | Blood ([1]; 192 h after administration): 0.00 % ID/g | Brain ([1]; 192 h after administration): 0.01 % ID/g | Heart ([1]; 192 h after administration): 0.01 % ID/g | Intestine ([1]; 192 h after administration): 0.02 % ID/g | Kidney ([1]; 192 h after administration): 2.16 % ID/g | LNCaP Tumor ([1]; 192 h after administration): 0.36 % ID/g | Liver ([1]; 192 h after administration): 0.05 % ID/g | Lung ([1]; 192 h after administration): 0.04 % ID/g | Muscle ([1]; 192 h after administration): 0.02 % ID/g | Pancreas ([1]; 192 h after administration): 0.05 % ID/g | Spleen ([1]; 192 h after administration): 0.85 % ID/g | Stomach (% ID) ([1]; 192 h after administration): 0.01 % ID | radioactivity in the eluate (in words) [2]: low
SMILES: O=C([O-])CN(Cc1cccc(C(=O)[O-])n1)C[C@H](Cc1ccc(NC(=O)CCCCCNC(=O)CCC(=O)NCCCC[C@H](NC(=O)N[C@@H](CCC(=O)O)C(=O)O)C(=O)O)cc1)N(CC(=O)[O-])Cc1cccc(C(=O)[O-])n1.[111In+3] [[^111In]In-Octapa-1, reference compound]
